{
  "source": "patent US12285397B2",
  "about": "“Use of (s)-3-amino-4-(difluoromethylenyl) cyclopent-1-ene-1-carboxylic acid and related compounds, (1S,3S)-3-amino-4-(difluoromethylidene) cyclopentane-1-carboxylic acid and vigabatrin in the treatment of developmental disorders” (Ovid Therapeutics Inc., priority 2018, dated 2025)",
  "type_in_all_cases": "in vivo, mouse",
  "key": {"[1]": {"system": "Fmr1 KO1 mice", "experiment": "Open field repetitive behavior: self grooming, Fmr1 KO1 mice", "excerpt": "(§1) Mutant fmr1 knockout (KO) mice recapitulate the Fragile X syndrome (FXS) phenotype and represent a preclinical model for assessment of putative drug treatments. In this study three different mice models of FXS were used: Fmr1 KO1 is the original Fmr1 knockout animal that carries an insertion in exon 5. See, e.g., Bakker C E, et al., The Dutch-Belgian Fragile X Consortium, Fmr1 knockout mice: A model to study fragile X mental retardation. Cell. 1994; 78:23-33 It is a protein null, although Fmr1 mRNA is still present. It is backcrossed to the C57/B16 strain. Subsequently, these mice were bred into different background strains, such as the FVB inbred mouse strain. Fmr1 KO2 is a null allele at Fmr1 generated by deletion of the promoter and first exon of Fmr1. See, Mientjes, E J et al., The generation of a conditional Fmr1 knock out mouse model to study Fmrp function in vivo. Neurobiology of Disease (2006) 21(3): 549-555. It is both protein and mRNA null. Backcrossed to the C57/B16 strain. Genotyping was accomplished using TransnetXY Automated Genotyping (http://www.transnetyx.com/). TRANSNETYX, INC., 8110 Cordova Rd. Suite 119, Cordova, TN 38016, USA.\n(§2) The mice were housed in plastic cages (35×30×12 cm), 5 in each and habituated to the animal facilities for at least a week before test. The room temperature (21±2° C.), relative humidity (55±5%), a 12-h light-dark cycle (lights on 7 a.m.-7 p.m.) and air exchange (16 times per h) were automatically controlled. The animals had free access to commercial food pellets and water. Testing was conducted during the light phase. Testing was conducted on Fmr1 knockout mice and their wild-type (WT) littermates. Ten mice per treatment group, 14 weeks of age, were used for behavioral experiments. Experiments were conducted in line with the requirements of the UK Animals (Scientific Procedures) Act, 1986.\n(§3) Oral dosing was performed by using 1.5-in. curved, 20-gauge, stainless steel feeding needles with a 2.25-mm ball (Braintree Scientific, Braintree, MA). Each gavage treatment was given in 0.5% methyl cellulose (Methyl Cellulose M0512, Sigma-Aldrich, St Louis, MO) used as vehicle with or without treatment compounds. The same veterinarian, blinded to the treatment groups, performed the procedure, and documented animal reactions to oral gavage. Reactions considered to indicate stress were defined as excessive struggling during gavage or abnormal behavior after gavage (labored breathing, frozen stance, exaggerated jumping, shuddering, and hunched posture).\n(§4) For experiments all mice were tested once in the same apparatus. Prior to testing, mice not in the study were placed in the apparatus for some minutes before the experiment. The apparatus was then cleaned with moist and dry tissues before testing each mouse. The aim was to create a low but constant background mouse odor for all experimental subjects. All experiments were conducted with the experimenters blind to genotype and drug treatment during all testing and data analysis. Separate investigators prepared and coded dosing solutions, allocated the mice to the study treatment groups, dosed the animals, and collected the behavioral data. Data were analyzed by one-way analysis of variance (ANOVA) followed by post-hoc comparisons where appropriate using Tukey's Multiple Comparison Test. Data are represented as the mean and standard error of the mean (SEM).\n(§5) 2. Open Field Repetitive Behaviors (RB) (stereotypies: anticlockwise circling and self grooming). Fmr1 KO1 mice display the autism-like phenotypes of repetitive behaviors like counter revolutions (CCW), self grooming and stereotypy that typically involves behaviors such as head bobbing. […]"}, "[2]": {"system": "Fmr1 KO2 mice", "experiment": "Hyponeophagia (anxiety, latency to eat), Fmr1 KO2 mice", "excerpt": "as §1, §2, §3, §4\n4. Hyponeophagia (inhibition of feeding) is used as a measure of anxiety which can be produced by a novel environment, particularly in rodents. […]"}, "[3]": {"system": "Fmr1 KO1 mice", "experiment": "Open field repetitive behavior: stereotypy count, Fmr1 KO1 mice", "excerpt": "as §1, §2, §3, §4\n2. Open Field Repetitive Behaviors (RB) (stereotypies: anticlockwise circling and self grooming). Fmr1 KO1 mice display the autism-like phenotypes of repetitive behaviors like counter revolutions (CCW), self grooming and stereotypy that typically involves behaviors such as head bobbing.\nC. […]"}, "[4]": {"system": "Fmr1 KO2 mice", "experiment": "Tests of daily living (nesting), Fmr1 KO2 mice", "excerpt": "as §1, §2, §3, §4\n3. Tests of daily living (nesting). Species-typical behaviors offer easy ways to test for hippocampal dysfunction. The hippocampus is vital for the performance of species-typical tasks, or “activities of daily living” of mice. […]"}, "[5]": {"system": "Fmr1 KO2 mice", "experiment": "Open field repetitive behavior: self grooming, Fmr1 KO2 mice", "design": "Effect on abnormal self grooming phenotype (FIG. 3): dose or concentration left out as unconfirmed", "excerpt": "as §1, §2, §3, §4\n2. Open Field Repetitive Behaviors (stereotypies: anticlockwise circling (aka counter revolutions) (CCW) and self grooming). Fmr1 KO2 mice display the autism-like phenotypes of repetitive behaviors like CCW, self grooming and stereotypy that typically involves behaviors such as head bobbing. […]"}, "[6]": {"system": "Fmr1 KO1 mice", "experiment": "Open field repetitive behavior: counter revolutions (CCW), Fmr1 KO1 mice", "excerpt": "as §1, §2, §3, §4, §5"}},
  "data": [
    {"smiles": "N[C@H]1C=C(C(=O)O)CC1=C(F)F", "note": "[Compound, (S)-3-Amino-4-(difluoromethylenyl)cyclopent-1-ene-1-carboxylic acid]", "values": [
      {"measurement": "Self grooming (time spent grooming), WT-Veh vs. KO1-Compound: Significant?", "setting": "[1]; 0.01 mg/Kg PO QD seven days", "result": "Yes"},
      {"measurement": "Self grooming (time spent grooming), WT-Veh vs. KO1-Compound: Significant?", "setting": "[1]; 0.05 mg/Kg PO QD seven days", "result": "No"},
      {"measurement": "Self grooming (time spent grooming), WT-Veh vs. KO1-Compound: Summary", "setting": "[1]; 0.05 mg/Kg PO QD seven days", "result": "ns"},
      {"measurement": "Self grooming (time spent grooming), WT-Veh vs. KO1-Compound: Significant?", "setting": "[1]; 0.1 mg/Kg PO QD seven days", "result": "No"},
      {"measurement": "Self grooming (time spent grooming), WT-Veh vs. KO1-Compound: Summary", "setting": "[1]; 0.1 mg/Kg PO QD seven days", "result": "ns"},
      {"measurement": "Time self-grooming compared with WT+veh (FIG. 9)", "setting": "[1]; 0.05 and 0.1 mg/Kg", "result": "did not differ from WT+veh"},
      {"measurement": "Hyponeophagia (latency to eat), WT-Veh vs. KO2-Compound: Significant?", "setting": "[2]; 0.01 mg/Kg PO QD seven days", "result": "Yes"},
      {"measurement": "Hyponeophagia (latency to eat), WT-Veh vs. KO2-Compound: Significant?", "setting": "[2]; 0.05 mg/Kg PO QD seven days", "result": "No"},
      {"measurement": "Hyponeophagia (latency to eat), WT-Veh vs. KO2-Compound: Summary", "setting": "[2]; 0.05 mg/Kg PO QD seven days", "result": "ns"},
      {"measurement": "Hyponeophagia (latency to eat), WT-Veh vs. KO2-Compound: Significant?", "setting": "[2]; 0.1 mg/Kg PO QD seven days", "result": "No"},
      {"measurement": "Hyponeophagia (latency to eat), WT-Veh vs. KO2-Compound: Summary", "setting": "[2]; 0.1 mg/Kg PO QD seven days", "result": "ns"},
      {"measurement": "Effect on latency to eat in hyponeophagia test (FIG. 6)", "setting": "[2]; 0.05 and 0.1 mg/Kg", "result": "decreasing their latency to eat to virtually control levels"},
      {"measurement": "Stereotypy count, WT-Veh vs. KO1-Compound: Significant?", "setting": "[3]; 0.01 mg/Kg PO QD seven days", "result": "Yes"},
      {"measurement": "Stereotypy count, WT-Veh vs. KO1-Compound: Significant?", "setting": "[3]; 0.05 mg/Kg PO QD seven days", "result": "No"},
      {"measurement": "Stereotypy count, WT-Veh vs. KO1-Compound: Summary", "setting": "[3]; 0.05 mg/Kg PO QD seven days", "result": "ns"},
      {"measurement": "Stereotypy count, WT-Veh vs. KO1-Compound: Significant?", "setting": "[3]; 0.1 mg/Kg PO QD seven days", "result": "No"},
      {"measurement": "Stereotypy count, WT-Veh vs. KO1-Compound: Summary", "setting": "[3]; 0.1 mg/Kg PO QD seven days", "result": "ns"},
      {"measurement": "Effect on repetitive behaviors (stereotypical movements, FIG. 10)", "setting": "[3]; 0.05 and 0.1 mg/Kg", "result": "decreased"},
      {"measurement": "Nesting, WT-Veh vs. KO2-Compound: Significant?", "setting": "[4]; 0.01 mg/Kg PO QD seven days", "result": "Yes"},
      {"measurement": "Nesting, WT-Veh vs. KO2-Compound: Significant?", "setting": "[4]; 0.05 mg/Kg PO QD seven days", "result": "No"},
      {"measurement": "Nesting, WT-Veh vs. KO2-Compound: Summary", "setting": "[4]; 0.05 mg/Kg PO QD seven days", "result": "ns"},
      {"measurement": "Nesting, WT-Veh vs. KO2-Compound: Significant?", "setting": "[4]; 0.1 mg/Kg PO QD seven days", "result": "No"},
      {"measurement": "Nesting, WT-Veh vs. KO2-Compound: Summary", "setting": "[4]; 0.1 mg/Kg PO QD seven days", "result": "ns"},
      {"measurement": "Effect on poorer nest building phenotype (FIG. 5)", "setting": "[4]; 0.05 and 0.1 mg/Kg", "result": "rescued"},
      {"measurement": "Effect on abnormal self grooming phenotype (FIG. 3)", "setting": "[5]", "result": "rescued"},
      {"measurement": "Time spent grooming (self grooming), WT-Veh vs. KO2-Compound: Significant?", "setting": "[5]; 0.01 mg/Kg PO QD seven days", "result": "Yes"},
      {"measurement": "Time spent grooming (self grooming), WT-Veh vs. KO2-Compound: Significant?", "setting": "[5]; 0.05 mg/Kg PO QD seven days", "result": "No"},
      {"measurement": "Time spent grooming (self grooming), WT-Veh vs. KO2-Compound: Summary", "setting": "[5]; 0.05 mg/Kg PO QD seven days", "result": "ns"},
      {"measurement": "Time spent grooming (self grooming), WT-Veh vs. KO2-Compound: Significant?", "setting": "[5]; 0.1 mg/Kg PO QD seven days", "result": "No"},
      {"measurement": "Time spent grooming (self grooming), WT-Veh vs. KO2-Compound: Summary", "setting": "[5]; 0.1 mg/Kg PO QD seven days", "result": "ns"},
      {"measurement": "Open field counter revolutions (CCW), WT-Veh vs. KO1-Compound: Significant?", "setting": "[6]; 0.01 mg/Kg PO QD seven days", "result": "Yes"},
      {"measurement": "Open field counter revolutions (CCW), WT-Veh vs. KO1-Compound: Significant?", "setting": "[6]; 0.05 mg/Kg PO QD seven days", "result": "No"},
      {"measurement": "Open field counter revolutions (CCW), WT-Veh vs. KO1-Compound: Summary", "setting": "[6]; 0.05 mg/Kg PO QD seven days", "result": "ns"},
      {"measurement": "Open field counter revolutions (CCW), WT-Veh vs. KO1-Compound: Significant?", "setting": "[6]; 0.1 mg/Kg PO QD seven days", "result": "No"},
      {"measurement": "Open field counter revolutions (CCW), WT-Veh vs. KO1-Compound: Summary", "setting": "[6]; 0.1 mg/Kg PO QD seven days", "result": "ns"},
      {"measurement": "Effect on CCW repetitive behavior (FIG. 8)", "setting": "[6]; 0.05 and 0.1 mg/Kg", "result": "reversed CCW repetitive behavior"}
    ]}
  ]
}
